{
  "source": "patent US20030171340A1",
  "about": "(priority 2002, published 2003)",
  "key": {"[1]": {"tested_on": "Pseudomonas isolate (Ps isolate, Susquehanna flats)", "assay": "Growth of Pseudomonas isolate in TSB in the presence of tetracycline, metal cations or tetracycline metal complexes", "type": "cell-based", "details": "for Ps isolate growth (S/I/+4): experiment D", "protocol": "(§1) Individual components were tested for inhibition or enhancement of Pseudomonas isolated from the site."}, "[2]": {"tested_on": "New Ps isolate from sediment", "assay": "Growth of new Ps isolate from sediment in the presence of tetracycline or tetracycline-Fe2+ complex", "type": "cell-based, Pseudomonas", "details": "experiment C", "protocol": "as §1"}},
  "data": [
    {"compound": "copper acetate [Cu^2+]", "values": [
      {"measurement": "Ps isolate growth", "setting": "[1]; experiment A, metal cation alone, 1 mL TSB + 4 μl (4 μg/mL)", "value": "Growth"},
      {"measurement": "Ps isolate growth (S/I/+4)", "setting": "[1]; 1 μg/mL", "value": "+4"},
      {"measurement": "Ps isolate growth (S/I/+4)", "setting": "[1]; 4 μg/mL", "value": "I"},
      {"measurement": "Ps isolate growth (S/I/+4)", "setting": "[1]; 8 μg/mL", "value": "S (no growth)"},
      {"measurement": "Ps isolate growth (S/I/+4)", "setting": "[1]; metal cation alone, concentration not given", "value": "+4"}
    ]},
    {"compound": "CN(C)[C@@H]1C(O)=C(C(N)=O)C(=O)[C@@]2(O)C(O)=C3C(=O)c4c(O)cccc4[C@@](C)(O)[C@H]3C[C@@H]12", "note": "[tetracycline]", "values": [
      {"measurement": "Ps isolate growth (R/I/S)", "setting": "[2]; 8 μg/mL", "value": "R"},
      {"measurement": "Ps isolate growth (R/I/S)", "setting": "[2]; 40 μg/mL", "value": "R"},
      {"measurement": "Ps isolate growth (R/I/S)", "setting": "[2]; 100 μg/mL", "value": "R"}
    ]}
  ]
}
